Test results reported in US20120148680A1, “EYE CREAM AND PREPARATION METHOD” (MAYINGLONG PHARMACEUTICAL GROUP CO., LTD, priority 2010, published 2012).

System: red blood cells
Assay: Stimulation test, Red Blood Cell (RBC) test system, INVITTOX n° 37
Format: cell-based
Details: relative to SDS
Procedure: Experimental method: Refer to ECVAM DB-ALM: INVITTOX protocol; Red Blood Cell Test System INVITTOX n° 37, hereinafter referred to as RBC test system.
The basic principle of the RBC test system is to determine the damage on the cell membrane caused by chemicals and the change of cell membrane permeability resulted from it. The damage degree of the cell membrane, which is directly related to the stimulation of a product, is evaluated through determining the amount of hemoglobin leaked from red blood cells.
The absorbance of red blood cell suspension after exposure to the chemicals is determined by spectrophotometric method, then the hemolysis rate and HSO value (i.e. the concentration value of the test substance, 50% of red blood cells of which develop hemolysis) can be calculated. The HSO value and the results of two grading standards in Draize test, i.e. the maximum average Draize total score (MAS) and the 24 h after application and scores of composition parameters (cornea, conjunctiva and iris) thereof are subjected to correlation analysis to show good consistency. At the same concentration, the higher the hemolysis rate of the sample is, the stronger the stimulation of the sample is.
The stimulation ratio of each sample is as shown in the following table relative to SDS after the comparison of the SDS stimulation ratio: […]

## CCCCCCCCCCCCOS(=O)(=O)[O-].[Na+] [SDS control substance, SDS]
  Stimulation ratio: 100%
